This passage reports IC50 results from US8889708B2 (Boehringer Ingelheim International GmbH, priority 2013, dated 2014).

Assay [1] has as its target recombinant human Cathepsin K (Homo sapiens (Human), UniProt P43235). Put plainly: Inhibition of Human Cathepsin K. The assay is classed as biochemical. The settings on record: substrate Z-Gly-Pro-Arg-AMC, 60 min room temperature. From the text:
Inhibition of Human Cathepsin K Materials: Microtiterplates (Optiplate-384 F were purchased from PerkinElmer (Prod. No. 6007270). The substrate Z-Gly-Pro-Arg-AMC was from Biomol (Prod.-No. P-142). L-Cysteine (Prod. No. 168149) was from Sigma. Sodium actetate was from Merck (Prod.-No. 6268.0250), EDTA was from Fluka (Prod.-No. 03680). The inhibitor E-64 was purchased from Sigma (Prod.-No. E3132). The recombinant human Cathepsin K proenzyme was purchased from Biomol (Prod. No. SE-367). All other materials were of highest grade commercially available.
The following buffers were used: Activation buffer: 32.5 mM sodium acetate, adjusted to pH 3.5 with HCl; Assay buffer: 150 mM sodium acetate, 4 mM EDTA, 20 mM L-Cysteine, adjusted to pH 5.5 with HCl,
To activate the proenzyme, 5 μl procathepsin K were mixed with 1 ul activation buffer, and incubated at room temperature for 30 min.
5 μL test compound (final concentration 0.1 nM to 100 μM) in aqua bidest (containing 4% DMSO, final DMSO concentration 1%) were mixed with 10 uL of Cathepsin K in assay buffer (final concentration 2 ng/μL) and incubated for 10 min. Then 5 μL of substrate in assay buffer (final concentration 12.5 μM) were added. The plates were then incubated at room temperature for 60 min. Then, the reaction was stopped by adding 10 μL of E64 in assay buffer (final concentration 1 μM). The fluorescence in the wells was determined using a Molecular Devices SpectraMax M5 Fluorescence Reader (Ex 360 nm, Em 460 nm).
Each assay microtiter plate contains wells with vehicle controls (1% DMSO in bidest) as reference for non-inhibited enzyme activity (100% Ctl; high values) and wells with inhibitor (E64 in bidest+1% DMSO, final concentration 1 μM) as controls for background fluorescence (0% Ctl; low values). The analysis of the data was performed by calculating the percentage of fluorescence in the presence of test compound in comparison to the fluorescence of the vehicle control after subtracting the background fluorescence: (RFU(sample)−RFU(background))*100/(RFU(control)−RFU(background))
Data from these calculations were used to generate IC50 values for inhibition of Cathepsin K, respectively.

The test system of assay [2] is Neutrophil elastase activity in U937 cells. Nature of the assay: Neutrophil elastase activity in U937 cytosolic lysate after incubation with test compound. The class given is cell-based. The settings on record: Homo sapiens, U-937, U937 cells incubated 48 hours with compound, read-out: Reduction of NE-activity in U937 cells IC50. The method, then: Determination of Neutrophil Elastase Activity in U937 Cytosolic Lysate Preparation after Incubation with Test Compound
Optiplate 384F were purchased from PerkinElmer (Prod. No. #6007270). 24well Nunclon cell culture plates (No. 142475) and 96well plates (No. 267245) were from Nunc. Dimethylsulfoxid (DMSO) was from Sigma (Prod. No. D8418). Nonidet-P40 (NP40) was from USBiological (Prod. No. N3500)
Substrate, specific for Neutrophil elastase, was from Bachem (MeOSuc-Ala-Ala-Pro-Val-AMC; Prod. No. I-1270).
Human neutrophil elastase was from Calbiochem (Prod. No. 324681)
Tris-buffer (100 mM Tris; 1M NaCL; pH 7.5)
Tris-buffer+HSA 0.1%; Human Serum Albumin from Calbiochem (Cat#. 126658)
Serine-protease buffer (20 mM Tris; 100 mM NaCL; pH 7.5)+0.1% HSA
Serine protease lysis buffer: 20 mM Tris-HCL; 100 mM NaCl pH 7.5; +0.2% Nonidet-P40;
PBS: phosphate buffered saline, without Ca and Mg, from Gibco
U937 from ECACC (Cat. No. 85011440) cultured in suspension at 37° C. and 5% CO2.
Cell density: 0.2-1 Mio. Cells/ml.
Medium: RPMI1640 GlutaMAX (No. 61870) with 10% FCS from Gibco
Cell Seeding and Treatment:
Compounds in 100% DMSO were diluted in Medium (—FCS) with 10% DMSO and further diluted according to the experiment planned.
20 μl of the compound solution was transferred in the respective wells of the 24 well plate and diluted with 2 ml cell suspension/well containing […] (final concentration of DMSO=0.1%). Compound dilution factor=100
Compounds (up to 7 concentrations) were tested in triplicates with 3 wells for the DMSO 0.1% control, incubatet for 48 hours without medium change at 37° C., 5% CO2 and 95% relative humidity.
Cell Harvesting and Cell Lysate:
Transfer the cell suspension in 2.2 ml Eppendorf cups. Separate cells from medium by centrifugation (400×g; 5 min; RT); discard the supernatant. Resuspend in 1 ml PBS; centrifugation (400×g; 5 min; RT); wash cells twice with PBS. Add 100 μl Serin lysis buffer (ice cold) to the cell pellet; resuspend the pellet and store on ice for 15 minutes. Remove debris by centrifugation at 15000×g for 10 min at 4° C. Transfer 80-100 μl lysate supernatant in 96well plate and store immediately at −80° C.
Neutrophil Elastase Activity Assay:
Frozen lysates were thawn at 37° C. for 10 minutes and stored on ice. Protein content was determined with Bradford protein assay. Lysates were diluted to 0.2-0.5 mg/ml protein in serine protease buffer+HSA.
Standard: NE ([…] stocksolution in Tris-buffer; stored at −80° C.) was diluted in Tris-buffer+HSA to 750 ng/ml, and further serially diluted 1:2 for the standard curve.
Buffer, blank, standard and lysate samples were transferred into 384 well plate
Blank: 5 μl Tris-buffer+10 μl Tris-buffer+HSA+5 μl Substrate
Standard: 5 μl Tris-buffer+10 μl NE (diff.conc.)+5 μl Substrate
Lysate: 5 μl Tris-buffer+10 μl Lysat+5 μl Substrate
The increase in fluorescence (Ex360 nm/Em 460 nm) is determined over 30 minutes with a Molecular Device Spectramax M5 Fluorescence Reader. Kinetic Reduction (Vmax units/sec); 4 vmax points. The amount of neutrophil elastase (ng/ml) is calculated using the standard curve and the Spectramax software. The result is interpolated to ng/mg lysate protein using excel formula functions. Percent inhibition in the compound-treated lysate samples is calculated relative to the DMSO-treated control-sample (100−(compound-sample*100)/control-sample)
IC50 is calculated using Graphpad Prism; nonlinear fitting (log(inhibitor) vs. response—Variable slope).

recombinant human Cathepsin K, sequence (P43235 115-329): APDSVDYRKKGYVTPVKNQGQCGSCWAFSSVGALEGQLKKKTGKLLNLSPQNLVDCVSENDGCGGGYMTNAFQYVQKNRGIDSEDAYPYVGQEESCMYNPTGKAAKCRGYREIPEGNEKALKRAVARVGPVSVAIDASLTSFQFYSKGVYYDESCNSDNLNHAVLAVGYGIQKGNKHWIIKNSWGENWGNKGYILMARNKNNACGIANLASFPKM

As for `COCCN1C(=O)Cc2ccc(-c3ccc(C[C@@H](C#N)NC(=O)C45CCC(CC4)CN5)c(F)c3)cc21` [Example 26], the IC50 (commonly the concentration that gives 50% inhibition) turned out to be 1100 nM in assay [1] and 13 nM in assay [2].

In the case of `CC1(C)OC(=O)c2ccc(-c3ccc(C[C@@H](C#N)NC(=O)C45CCC(CC4)CN5)c(F)c3)cc21` [Example 27], the concentration for half-maximal inhibition (IC50) in assay [1] worked out at 1700 nM; in assay [2] it was 7 nM.

Regarding `N#C[C@H](Cc1ccc(-c2ccc3c(c2)CCNC3=O)cc1F)NC(=O)C12CCC(CC1)CN2` [Example 22], the IC50 in assay [1] is 2300 nM; in assay [2], 7 nM.

For the compound `N#C[C@H](Cc1ccc(-c2csc(C(N)=O)c2)cc1F)NC(=O)C12CCC(CC1)CN2` [Example 31], the concentration for half-maximal inhibition (IC50) was determined as 800 nM in assay [1] and 73 nM in assay [2].

On to `CN1Cc2cc(-c3ccc(C[C@@H](C#N)NC(=O)C45CCC(CC4)CN5)cc3)ccc2C1=O` [Example 4], for which the half-maximal inhibitory concentration (IC50) in assay [1] was 6300 nM; in assay [2], 86 nM.

For `N#C[C@H](Cc1ccc(-c2ccc3c(c2)NC(=O)C3)cc1F)NC(=O)C12CCC(CC1)CN2` [Example 23], the half-inhibitory concentration (IC50) stood at 600 nM in assay [1] and 33 nM in assay [2].

Take `CS(=O)(=O)c1ccc(-c2ccc(C[C@@H](C#N)NC(=O)C34CCC(CC3)CN4)c(F)c2)cc1` [Example 21, N-[(1S)-1-cyano-2-[2-fluoro-4-(4-methanesulfonylphenyl)phenyl]ethyl]-2-azabicyclo[2.2.2]octane-1-carboxamide]: the half-maximal inhibitory concentration (IC50) in assay [1] was 800 nM; in assay [2] it was 48 nM.

As for `CN1C(=O)Cc2ccc(-c3ccc(C[C@@H](C#N)NC(=O)C45CCC(CC4)CN5)c(F)c3)cc21` [Example 28], the IC50 in assay [1] was found to be 2200 nM; in assay [2], 13 nM.

Consider `CN1C(=O)Cc2ccc(-c3ccc(C[C@@H](C#N)NC(=O)C45CCC(CC4)CN5)cc3)cc21` [Example 2], for which the IC50 in assay [1] came to 6700 nM; in assay [2], 27 nM.
